Data on 6 molecules can be found in ChEMBL document CHEMBL1139699, “Solid-phase synthesis and antibacterial activity of hydroxycinnamic acid amides and analogues against methicillin-resistant Staphylococcus aureus and vancomycin-resistant S. aureus” (Bioorg Med Chem Lett, 2006).

Converted amounts (≈) assume the structure as drawn. The source made the active and inactive calls. The calls are words filed in the database; no cut-off is given here.

Assay [1] relates to Staphylococcus aureus. Kind of assay: Antibacterial activity against methicillin-resistant Staphylococcus aureus 20630. The format is functional.
The test system of assay [2] is Staphylococcus aureus. The assay can be described thus: Antibacterial activity against methicillin-resistant Staphylococcus aureus 20631. The format is functional.
Assay [3] has as its system Staphylococcus aureus. Kind of assay: Antibacterial activity against methicillin-resistant Staphylococcus aureus 20632. The format is functional.
The subject of assay [4] is Staphylococcus aureus. The assay can be described thus: Antibacterial activity against methicillin-resistant Staphylococcus aureus 20635. The format is functional.
Assay [5] deals with Staphylococcus aureus. The assay can be described thus: Antibacterial activity against methicillin-resistant Staphylococcus aureus 20636. The format is functional.
Assay [6] relates to Staphylococcus aureus. Kind of assay: Antibacterial activity against methicillin-resistant Staphylococcus aureus 20654. The format is functional.
The test system of assay [7] is Staphylococcus aureus. Kind of assay: Antibacterial activity against vancomycin-resistant Staphylococcus aureus 20622 at 256 ug/ml. The format is functional, organism-based.
In assay [8] the test system is Staphylococcus aureus. The assay can be described thus: Antibacterial activity against vancomycin-resistant Staphylococcus aureus 20623 at 256 ug/ml. The format is functional, organism-based.
For assay [9], the system named is Staphylococcus aureus. Kind of assay: Antibacterial activity against vancomycin-resistant Staphylococcus aureus 20624 at 256 ug/ml. The format is functional, organism-based.
Assay [10] concerns Staphylococcus aureus. Kind of assay: Antibacterial activity against vancomycin-resistant Staphylococcus aureus 21083 at 256 ug/ml. The format is functional, organism-based.
The test system of assay [11] is Staphylococcus aureus. The assay can be described thus: microbe, parasite or virus in culture. The conditions noted are these: 20652.
Assay [12] has as its system Staphylococcus aureus. The assay can be described thus: Antibacterial activity against methicillin-resistant Staphylococcus aureus at 256 ug/ml. The format is functional, organism-based.
Assay [13] concerns Staphylococcus aureus. The assay can be described thus: Antibacterial activity against methicillin-resistant Staphylococcus aureus 20628 at 256 ug/ml. The format is functional, organism-based.
Assay [14] concerns Staphylococcus aureus. Kind of assay: Antibacterial activity against methicillin-resistant Staphylococcus aureus 20630 at 256 ug/ml. The format is functional, organism-based.
For assay [15], the system named is Staphylococcus aureus. The assay can be described thus: Antibacterial activity against methicillin-resistant Staphylococcus aureus 20631 at 256 ug/ml. The format is functional, organism-based.
Assay [16] has as its system Staphylococcus aureus. The assay can be described thus: Antibacterial activity against methicillin-resistant Staphylococcus aureus 20632 at 256 ug/ml. The format is functional, organism-based.
Assay [17] has as its system Staphylococcus aureus. Kind of assay: Antibacterial activity against methicillin-resistant Staphylococcus aureus 20633 at 256 ug/ml. The format is functional, organism-based.
Assay [18] relates to Staphylococcus aureus. Kind of assay: Antibacterial activity against methicillin-resistant Staphylococcus aureus 20635 at 256 ug/ml. The format is functional, organism-based.
Assay [19] concerns Staphylococcus aureus. The assay can be described thus: Antibacterial activity against methicillin-resistant Staphylococcus aureus 20636 at 256 ug/ml. The format is functional, organism-based.
Assay [20] has as its system Staphylococcus aureus. The assay can be described thus: Antibacterial activity against methicillin-resistant Staphylococcus aureus 20652 at 256 ug/ml. The format is functional, organism-based.
The test system of assay [21] is Staphylococcus aureus. The assay can be described thus: Antibacterial activity against methicillin-resistant Staphylococcus aureus 20653 at 256 ug/ml. The format is functional, organism-based.
The test system of assay [22] is Staphylococcus aureus. Kind of assay: Antibacterial activity against methicillin-resistant Staphylococcus aureus 20654 at 256 ug/ml. The format is functional, organism-based.
Assay [23] has as its system Staphylococcus aureus. The assay can be described thus: Antibacterial activity against vancomycin-resistant Staphylococcus aureus 20623. The format is functional.
For assay [24], the system named is Staphylococcus aureus. The assay can be described thus: Antibacterial activity against vancomycin-resistant Staphylococcus aureus 20624. The format is functional.
The subject of assay [25] is Staphylococcus aureus. Kind of assay: Antibacterial activity against vancomycin-resistant Staphylococcus aureus 21083. The format is functional.
The subject of assay [26] is Staphylococcus aureus. The assay can be described thus: Antibacterial activity against methicillin-resistant Staphylococcus aureus 20652 at 50 ug/ml. The format is functional, organism-based.
Assay [27] is described as follows: Cytotoxicity against human gingival cells. The format is cell-based.
The subject of assay [28] is Staphylococcus aureus. Kind of assay: Antibacterial activity against methicillin-resistant Staphylococcus aureus. The format is functional.
The subject of assay [29] is Staphylococcus aureus. Kind of assay: Antibacterial activity against methicillin-resistant Staphylococcus aureus 20628. The format is functional.
Assay [30] concerns Staphylococcus aureus. The assay can be described thus: Antibacterial activity against methicillin-resistant Staphylococcus aureus 20633. The format is functional.
The test system of assay [31] is Staphylococcus aureus. Kind of assay: Antibacterial activity against methicillin-resistant Staphylococcus aureus 20653. The format is functional.
The subject of assay [32] is Staphylococcus aureus. The assay can be described thus: Antibacterial activity against vancomycin-resistant Staphylococcus aureus 20622. The format is functional.
The subject of assay [33] is Staphylococcus aureus. Kind of assay: Antibacterial activity against methicillin-resistant Staphylococcus aureus 20652 at 100 ug/ml. The format is functional, organism-based.
Assay [34] deals with Staphylococcus aureus. Kind of assay: Antibacterial activity against methicillin-resistant Staphylococcus aureus 20628 at 25 ug/ml. The format is functional, organism-based.
Assay [35] concerns Staphylococcus aureus. Kind of assay: Antibacterial activity against methicillin-resistant Staphylococcus aureus 20633 at 25 ug/ml. The format is functional, organism-based.
The subject of assay [36] is Staphylococcus aureus. The assay can be described thus: Antibacterial activity against methicillin-resistant Staphylococcus aureus 20636 at 25 ug/ml. The format is functional, organism-based.
Assay [37] has as its system Staphylococcus aureus. The assay can be described thus: Antibacterial activity against methicillin-resistant Staphylococcus aureus 20652 at 25 ug/ml. The format is functional, organism-based.
For assay [38], the system named is Staphylococcus aureus. Kind of assay: Antibacterial activity against methicillin-resistant Staphylococcus aureus 20653 at 25 ug/ml. The format is functional, organism-based.
Assay [39] relates to Staphylococcus aureus. Kind of assay: Antibacterial activity against methicillin-resistant Staphylococcus aureus 20654 at 25 ug/ml. The format is functional, organism-based.

For `CN[C@H](CC(C)C)C(=O)N[C@H]1C(=O)N[C@@H](CC(N)=O)C(=O)N[C@H]2C(=O)N[C@H]3C(=O)N[C@H](C(=O)N[C@H](C(=O)O)c4cc(O)cc(O)c4-c4cc3ccc4O)[C@H](O)c3ccc(c(Cl)c3)Oc3cc2cc(c3O[C@@H]2O[C@H](CO)[C@@H](O)[C@H](O)[C@H]2O[C@H]2C[C@](C)(N)[C@H](O)[C@H](C)O2)Oc2ccc(cc2Cl)[C@H]1O` [VANCOMYCIN], the MIC in [1] worked out at 1.5 µg/mL (≈ 1.04 µM); in assay [2], 48 µg/mL (≈ 33.1 µM); in assay [3] it was 3 µg/mL (≈ 2.07 µM); in assay [4], 8 µg/mL (≈ 5.52 µM); in assay [5] it was 1.5 µg/mL (≈ 1.04 µM); in assay [6] it was 1.5 µg/mL (≈ 1.04 µM). This molecule also returned an MIC in [11] of 0.25 µg/mL (≈ 0.173 µM). The outcome in assay [7], in assay [8], in assay [9] and in [10] was inactive.

With `Cc1onc(-c2ccccc2)c1C(=O)N[C@@H]1C(=O)N2[C@@H]1SC(C)(C)[C@@H]2C(=O)O`, the result in assay [7], in assay [8], in [9], in assay [10], in assay [12] and in [13] was inactive. Besides, the outcome in assay [14], in assay [15], in assay [16], in [17], in assay [18] and in [19] was inactive. Moreover, the result in [20], in assay [21] and in assay [22] was inactive.

As for `NCCCNC(=O)CCc1ccc(O)c(O)c1`, the MIC in assay [23] came to 50 µg/mL (≈ 210 µM); in [24], 50 µg/mL (≈ 210 µM); in [25], 25 µg/mL (≈ 105 µM); in assay [28], 50 µg/mL (≈ 210 µM); in assay [29], 50 µg/mL (≈ 210 µM); in assay [1] it was 50 µg/mL (≈ 210 µM). The MIC in assay [2] was found to be 50 µg/mL (≈ 210 µM); in assay [3], 50 µg/mL (≈ 210 µM); in assay [30], 50 µg/mL (≈ 210 µM); in [4] it was 25 µg/mL (≈ 105 µM); in [5], 25 µg/mL (≈ 105 µM); in assay [31] it was 25 µg/mL (≈ 105 µM). The figures for the MIC in assay [6] and in assay [32] were 50 µg/mL (≈ 210 µM) and 100 µg/mL (≈ 420 µM), respectively. For the same molecule, the result in assay [26] was inactive. In addition, the IC50 in assay [27] is more than 100 µg/mL.

For the molecule `NCCCCCCNC(=O)/C=C/c1ccc(O)c(O)c1`, the MIC in [23] was 50 µg/mL (≈ 180 µM); in assay [24], 50 µg/mL (≈ 180 µM); in [25], 25 µg/mL (≈ 89.8 µM); in assay [28], 100 µg/mL (≈ 359 µM); in [29], 50 µg/mL (≈ 180 µM); in assay [1] it was 50 µg/mL (≈ 180 µM). Besides, the MIC in assay [2] was determined as 50 µg/mL (≈ 180 µM); in assay [3] it was 50 µg/mL (≈ 180 µM); in [30] it was 50 µg/mL (≈ 180 µM); in [4] it was 25 µg/mL (≈ 89.8 µM); in assay [5], 50 µg/mL (≈ 180 µM); in assay [31], 25 µg/mL (≈ 89.8 µM). Besides, the MIC in assay [6] is 25 µg/mL (≈ 89.8 µM); in [32] it was 100 µg/mL (≈ 359 µM). The outcome in assay [33] was inactive. This molecule displayed an IC50 in [27] of more than 100 µg/mL.

Regarding `NCCCCNC(=O)CCc1ccc(O)c(O)c1`, the MIC stood at 25 µg/mL (≈ 99.1 µM) in assay [23]; 25 µg/mL (≈ 99.1 µM) in assay [24]; 25 µg/mL (≈ 99.1 µM) in assay [25]; 25 µg/mL (≈ 99.1 µM) in assay [28]; 50 µg/mL (≈ 198 µM) in [29]; 50 µg/mL (≈ 198 µM) in assay [1]. Besides, the MIC in assay [2] was determined as 25 µg/mL (≈ 99.1 µM); in assay [3], 25 µg/mL (≈ 99.1 µM); in [30], 25 µg/mL (≈ 99.1 µM); in [4], 12.5 µg/mL (≈ 49.5 µM); in [5], 25 µg/mL (≈ 99.1 µM); in assay [31], 25 µg/mL (≈ 99.1 µM). Further, the values for the MIC in assay [6] and in assay [32] were 25 µg/mL (≈ 99.1 µM) and 100 µg/mL (≈ 396 µM), respectively. For the same molecule, the outcome in [26] was inactive. The IC50 in [27] was more than 100 µg/mL.

Take `NCCCCCNC(=O)CCc1ccc(O)c(O)c1`: the MIC in assay [23] was 25 µg/mL (≈ 93.9 µM); in assay [24], 50 µg/mL (≈ 188 µM); in [25], 25 µg/mL (≈ 93.9 µM); in assay [28], 50 µg/mL (≈ 188 µM); in [1] it was 50 µg/mL (≈ 188 µM); in assay [2] it was 50 µg/mL (≈ 188 µM). The MIC in assay [3] turned out to be 50 µg/mL (≈ 188 µM); in assay [4], 25 µg/mL (≈ 93.9 µM); in [32], 50 µg/mL (≈ 188 µM). Further, the result in [34], in assay [35], in assay [36], in assay [37], in assay [38] and in assay [39] was inactive. This molecule came in with an IC50 in assay [27] of more than 100 µg/mL.
